Where no end group is shown, it is not given here.

In experiment [1] the test system is P. gingivalis hemagglutination of erythrocytes. Kind of experiment: histatin peptide inhibition of hemagglutination assay. The format is cell-based, Porphyromonas gingivalis. The note with it: for Hemagglutination: lowest dose (μM) at which hemagglutination was observed using P. Gingivalis: 2 hours at room temperature, visual examination. As for the experimental part: The P. gingivalis strain of Section C.(1) was also used for the hemagglutination assays. The bacterial growth and culture conditions were also the same as those described in Section C.(1).
A classic assay was utilized to determine the hemagglutination potential of the P. gingivalis strain. Microorganisms were inoculated into BFB broth and cultured overnight, for approximately 24 hours at 37° C. under strictly anaerobic conditions with continuous agitation on a minishaker (IKA-Labortechnik, Staufen i. Br., Germany). The bacteria were harvested by centrifugatin at 3,000 r.p.m. for 20 min, at 4° C., washed twice in 0.01M phosphate buffered saline (PBS), pH 7.4, and suspended in the same buffer to an optical density of 1.0 at 550 nm. […] One ml of blood was drawn each time, washed twice in PBS at 1,000 r.p.m. for 10 min at 4° C. and suspended in the same buffer at a 2% (v/v) final concentration. Fifty μl of the bacterial suspension were serially diluted in PBS (two-fold steps) in a 96-well U-bottom microplate (Costar, Cambridge, Mass.). Fifty μl of the erythrocyte suspension were added to each well. Controls without bacteria or erythrocytes were included. The microplate was slightly shaken and incubated at room temperature for 2 hours. Visible examination on a white background was used to determine hemagglutination. The amount of hemagglutination was rated as none,(-), moderate (+/-), or strong (+). Erythrocytes in control wells with PBS precipitated to the center of the well, whereas erythrocyte-bacteria aggregates precipitated at the periphery of the bottom. The hemagglutination titer was expressed as the reciprocal of the highest dilution of the bacterial suspension providing visible hemagglutination.
Preparation of erythrocyte and bacterial suspensions were the same as for the hemagglutination assay. Fifty μl of histatin peptide solutions were diluted in PBS in a U-bottom microplate, at various two-fold concentrations with 600 nmole/ml being the highest. The bacterial concentration utilized was normally twice the minimal concentration which gave strong hemagglutination. Equal volumes of the bacterial suspension were poured into the wells containing the histatin peptides. Finally, 50 μl of erythrocyte suspension were added in each well. The microplate was slightly shaken and incubated at room temperature for 2 hours. Controls were made by replacement of the peptide dilutions with PBS only. The experiments were conducted at least twice. The lowest histatin peptide concentration without hemagglutination (complete inhibition) was determined upon visual examination. The highest final histatin peptide concentration utilized was 100 nmole/ml.

The test system of experiment [2] is Porphyromonas gingivalis strain A7A1-28. Kind of experiment: microdilution bacteriostatic assay (P. gingivalis growth inhibition). The format is cell-based. The note with it: for P. gingivalis: % increase in time to reach mid logphase growth (0.2 OD): 2 mM dose. As for the experimental part: (a) The bacteria used in one investigation, Porphyromonas gingivalis strain A7A1-28, is a typical key pathogenic organism associated with destructive periodontal diseases. The bacteria were multiply subcultured in Enriched Todd Hewitt broth (ETHB, Difco Lab., Detroit, Mich.). Microorganisms were stored in the same broths containing 20% and 50% glycerol, at -20° C. and -70° C., respectively. These served as stock cultures from which all preparations originated.
Working stock cultures were maintained by weekly transfer to Brain Heart Infusion Anaerobic Sheep Blood Agar plates (BHIA, Becton Dickinson and Co., Cockeysville, Md.), and Trypticase Soy Anaerobic Sheep Blood Agar plates (TSA, Becton Dickinson and Co., Cockeysville, Md.). Plates were incubated for 3 to 4 days under strictly anaerobic conditions. For the bacteriostatic assay, bacteria were collected from plates, inoculated into the aforementioned broth and grown at 37° C., under strictly anaerobic conditions for 24 to 48 hours.
A modification of the typical microdilution assay (Rotilie et al., 1975) for the determination of minimal inhibitory concentration (MIC) of antimicrobial agents was utilized to investigate the bacteriostatic activity of the peptides. A standardized bacterial inoculum (P. gingivalis) was exposed to serially diluted antimicrobial peptides in an enriched broth medium that was suitable for the growth of anaerobic bacteria. The test was adapted for use in the 96-well microtiter plates. […] The modification introduced here was based on the spectrophotometric reading of the microtiter plate after incubation.
Microorganisms from cultures maintained in the aforementioned plates were inoculated into 5 ml of the above-mentioned broths and cultured overnight at 37° C. under strictly anaerobic conditions with continuous agitation on a minishaker (IKA-Labortechnik, Staufen i. Br., Germany). The bacteria were grown until reaching the late log phase and were then suspended in the same broths to an optical density (O.D.) of 0.1 at 560 nm. The peptides were diluted in 0.01M phosphate buffered saline (PBS), pH 7. Forty μl aliquots of peptide dilutions were added in each well of a U-bottom microtiter plate (Costar, Cambridge, Mass.) to give final concentrations of 2000, 1000, 500 and 250 μM. Twenty μl of bacterial inoculum was added to all the wells. Finally, 100 μl of the suitable broth were added to each well. The optical density of the wells of the microtiter plate was determined using a microplate reader set at 550 nm and the plate was then incubated under strictly anaerobic conditions for 24 hours. Controls were made by replacing the peptide dilutions with PBS alone. After the incubation, the mixtures in each well were mixed manually to resuspend sedimented bacteria and the plate was read again. The experiments were conducted twice every time. The biologic activity was calculated according to the formula:
100-[[(Fin ODexp-In ODexp)/(Fin ODctr-In ODctr)]×100]
In addition, the % increase in time to reach midlog phase growth was calculated.
The data presentation represent the means (±SEM) of at least 2 separate experiments.
On the technique in general: In broth dilution the organism is exposed to a series of concentrations in liquid medium.

On to AKRHHGYKRKF [peptide 118], for which, in experiment [1], the “bacteria mediated hemagglutination inhibition, in words” value is reported as “bacteria mediated hemagglutination inhibition” and the “Hemagglutination: lowest dose (μM) at which hemagglutination was observed using P. Gingivalis” value (from here on “Hemagglutination … using P. Gingivalis”) was 6.25 µM. Moreover, the “P. gingivalis growth inhibition, in words” value in experiment [2] is recorded as “P. gingivalis growth inhibition”.

For the substance AKRHHGYKR [peptide 120], in experiment [1], the “bacteria mediated hemagglutination inhibition, in words” value was “bacteria mediated hemagglutination inhibition” and the “Hemagglutination … using P. Gingivalis” value came out at 50 µM. In addition, in experiment [2], the “P. gingivalis growth inhibition, in words” value was “P. gingivalis growth inhibition”.

For KRHHGYKRKF [peptide 129], in experiment [1], the “bacteria mediated hemagglutination inhibition, in words” value is given as “bacteria mediated hemagglutination inhibition” and the “Hemagglutination … using P. Gingivalis” value came to 50 µM. Also, in experiment [2], the “P. gingivalis growth inhibition, in words” value is on record as “P. gingivalis growth inhibition” and the “P. gingivalis: % increase in time to reach mid logphase growth (0.2 OD)” value was 15.4%.

As to AKRHHGYKRK [peptide 119], in experiment [1], the “bacteria mediated hemagglutination inhibition, in words” value is recorded as “bacteria mediated hemagglutination inhibition” and the “Hemagglutination … using P. Gingivalis” value worked out at 25 µM. In addition, the “P. gingivalis growth inhibition, in words” value in experiment [2] is recorded as “P. gingivalis growth inhibition”.

Regarding “His 11: histatin 11 (SEQ ID NO: 11), subpeptide of peptide 113 (KRHHGYKR)”, in experiment [1], the “bacteria mediated hemagglutination inhibition, in words” value is recorded as “bacteria mediated hemagglutination inhibition” and the “Hemagglutination … using P. Gingivalis” value is 100 µM. Besides, the “P. gingivalis growth inhibition, in words” value in experiment [2] is “P. gingivalis growth inhibition”.

As for AKRHHGYKRKFH [peptide 113], in experiment [1], the “bacteria mediated hemagglutination inhibition, in words” value is “bacteria mediated hemagglutination inhibition” and the “Hemagglutination … using P. Gingivalis” value is 25 µM. Also, in experiment [2], the “P. gingivalis growth inhibition, in words” value is reported as “P. gingivalis growth inhibition” and the “P. gingivalis: % increase in time to reach mid logphase growth (0.2 OD)” value amounted to 34.95%.

As for “peptide 117: subpeptide of peptide 113 (SEQ ID NO: 19) (KRHHGYKRKFH)”, in experiment [1], the “bacteria mediated hemagglutination inhibition, in words” value is “bacteria mediated hemagglutination inhibition”. The “P. gingivalis growth inhibition, in words” value in experiment [2] was “P. gingivalis growth inhibition”.

Values taken from patent US5912230A, “Anti-fungal and anti-bacterial histatin-based peptides” (priority 1998, dated 1999).
